In general, Kd refers to the concentration at which binding is half-saturated. Low readings indicate tighter binding, high ones weaker binding.

Consider one molecule from doi:10.1101/2021.04.12.439490v1 (biorxiv, 2021).

The test concerns the target full-length WDR5, C-terminal NanoLuc fusion (WDR5-C) (Homo sapiens, UniProt P61964). Put plainly: NanoBRET tracer titration. The class given is cell-based.

Structures are written as SMILES.

As for `CN1CCN(c2ccc(-c3ccc(C(=O)NCCCOCCOCCOCCCNC(=O)CCc4ccc5n4[B-](F)(F)[N+]4=C(c6ccc[nH]6)C=CC4=C5)cc3)cc2NC(=O)c2c[nH]c(=O)cc2C(F)(F)F)CC1` [19c], the Kd is around 1 µM.
